Columns and labels:
Test in all cases: biochemical
Design in all cases: Eurofins recombinant human kinase profiling, remaining kinase activity as % of control, 10 uM ATP
Details in all cases: ATP 10 uM; read-out: %Ctrl@10 μM
ARK5(h) = molecular target: T1, ARK5(h) (Homo sapiens, UniProt O60285)
T1 construct: gene NUAK1
Outline: (§1)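 Activity measured in a commercial panel of 401 recombinant human protein kinases run as a kinase profiling service.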

BMPR2(h) = BMPR2(h) (Homo sapiens, UniProt Q13873)
Outline: as §1

CDK1/cyclinB(h) = CDK1/cyclinB(h) (Homo sapiens, UniProt P06493)
Outline: as §1

CDK12/cyclinK(h) = CDK12/cyclinK(h) (Homo sapiens, UniProt Q9NYV4)
Outline: as §1

IKKε(h) = molecular target: T2, IKKε(h) (Homo sapiens, UniProt Q14164)
T2 construct: gene IKBKE
Outline: as §1

MINK(h) = molecular target: T3, MINK(h) (Homo sapiens, UniProt Q8N4C8)
T3 construct: gene MINK1
T3 sequence (Q8N4C8 whole entry): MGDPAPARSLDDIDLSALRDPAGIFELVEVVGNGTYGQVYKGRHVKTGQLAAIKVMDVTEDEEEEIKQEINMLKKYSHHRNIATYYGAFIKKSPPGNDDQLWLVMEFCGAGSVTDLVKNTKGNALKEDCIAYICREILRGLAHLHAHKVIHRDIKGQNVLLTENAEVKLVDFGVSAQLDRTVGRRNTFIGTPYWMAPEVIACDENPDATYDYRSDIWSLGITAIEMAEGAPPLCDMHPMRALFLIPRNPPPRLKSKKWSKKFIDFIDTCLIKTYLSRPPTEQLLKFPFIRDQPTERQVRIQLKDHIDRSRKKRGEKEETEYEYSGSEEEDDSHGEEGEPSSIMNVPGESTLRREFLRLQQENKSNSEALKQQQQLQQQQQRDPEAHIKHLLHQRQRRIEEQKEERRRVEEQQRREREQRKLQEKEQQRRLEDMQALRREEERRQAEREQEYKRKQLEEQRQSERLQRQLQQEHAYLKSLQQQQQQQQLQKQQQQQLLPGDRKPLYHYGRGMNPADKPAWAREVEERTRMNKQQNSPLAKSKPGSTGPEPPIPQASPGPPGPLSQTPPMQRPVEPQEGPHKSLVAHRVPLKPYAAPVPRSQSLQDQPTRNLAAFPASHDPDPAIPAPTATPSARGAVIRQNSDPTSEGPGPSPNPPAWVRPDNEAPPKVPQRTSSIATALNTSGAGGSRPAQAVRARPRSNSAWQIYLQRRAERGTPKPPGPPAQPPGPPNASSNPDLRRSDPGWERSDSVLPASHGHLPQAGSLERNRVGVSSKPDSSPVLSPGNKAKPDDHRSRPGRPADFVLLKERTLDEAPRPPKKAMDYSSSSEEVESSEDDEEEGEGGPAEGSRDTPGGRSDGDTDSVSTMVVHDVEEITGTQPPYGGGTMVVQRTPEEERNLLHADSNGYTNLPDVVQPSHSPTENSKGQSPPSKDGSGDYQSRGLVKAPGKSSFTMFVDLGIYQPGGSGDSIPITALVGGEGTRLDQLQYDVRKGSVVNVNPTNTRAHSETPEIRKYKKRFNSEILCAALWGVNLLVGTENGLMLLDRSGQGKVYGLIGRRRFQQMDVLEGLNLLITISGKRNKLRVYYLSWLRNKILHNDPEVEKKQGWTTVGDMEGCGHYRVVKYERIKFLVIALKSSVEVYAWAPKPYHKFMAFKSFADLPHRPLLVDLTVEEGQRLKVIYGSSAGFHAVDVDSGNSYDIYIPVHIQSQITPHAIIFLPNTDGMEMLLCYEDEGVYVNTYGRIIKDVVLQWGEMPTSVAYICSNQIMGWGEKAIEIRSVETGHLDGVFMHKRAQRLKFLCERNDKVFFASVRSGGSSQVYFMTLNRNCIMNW
Outline: as §1

MKK6(h) = molecular target: T4, MKK6(h) (Homo sapiens, UniProt P52564)
T4 construct: gene MAP2K6
Outline: as §1

MLCK(h) = molecular target: T5, MLCK(h) (Homo sapiens, UniProt Q15746)
T5 construct: gene MYLK
Outline: as §1

NEK2(h) = NEK2(h) (Homo sapiens, UniProt P51955)
Outline: as §1

PAK4(h) = PAK4(h) (Homo sapiens, UniProt O96013)
Outline: as §1

PDHK2(h) = molecular target: T6, PDHK2(h) (Homo sapiens, UniProt Q15119)
T6 construct: gene PDK2
Outline: as §1

PDK1(h) = molecular target: T7, PDK1(h) (Homo sapiens, UniProt O15530)
T7 construct: gene PDPK1
Outline: as §1

PKA(h) = molecular target: T8, PKA(h) (Homo sapiens, UniProt P17612)
T8 construct: gene PRKACA
Outline: as §1

PRK1(h) = molecular target: T9, PRK1(h) (Homo sapiens, UniProt Q16512)
T9 construct: gene PKN1
Outline: as §1

PRK2(h) = molecular target: T10, PRK2(h) (Homo sapiens, UniProt Q16513)
T10 construct: gene PKN2
T10 sequence (Q16513 whole entry): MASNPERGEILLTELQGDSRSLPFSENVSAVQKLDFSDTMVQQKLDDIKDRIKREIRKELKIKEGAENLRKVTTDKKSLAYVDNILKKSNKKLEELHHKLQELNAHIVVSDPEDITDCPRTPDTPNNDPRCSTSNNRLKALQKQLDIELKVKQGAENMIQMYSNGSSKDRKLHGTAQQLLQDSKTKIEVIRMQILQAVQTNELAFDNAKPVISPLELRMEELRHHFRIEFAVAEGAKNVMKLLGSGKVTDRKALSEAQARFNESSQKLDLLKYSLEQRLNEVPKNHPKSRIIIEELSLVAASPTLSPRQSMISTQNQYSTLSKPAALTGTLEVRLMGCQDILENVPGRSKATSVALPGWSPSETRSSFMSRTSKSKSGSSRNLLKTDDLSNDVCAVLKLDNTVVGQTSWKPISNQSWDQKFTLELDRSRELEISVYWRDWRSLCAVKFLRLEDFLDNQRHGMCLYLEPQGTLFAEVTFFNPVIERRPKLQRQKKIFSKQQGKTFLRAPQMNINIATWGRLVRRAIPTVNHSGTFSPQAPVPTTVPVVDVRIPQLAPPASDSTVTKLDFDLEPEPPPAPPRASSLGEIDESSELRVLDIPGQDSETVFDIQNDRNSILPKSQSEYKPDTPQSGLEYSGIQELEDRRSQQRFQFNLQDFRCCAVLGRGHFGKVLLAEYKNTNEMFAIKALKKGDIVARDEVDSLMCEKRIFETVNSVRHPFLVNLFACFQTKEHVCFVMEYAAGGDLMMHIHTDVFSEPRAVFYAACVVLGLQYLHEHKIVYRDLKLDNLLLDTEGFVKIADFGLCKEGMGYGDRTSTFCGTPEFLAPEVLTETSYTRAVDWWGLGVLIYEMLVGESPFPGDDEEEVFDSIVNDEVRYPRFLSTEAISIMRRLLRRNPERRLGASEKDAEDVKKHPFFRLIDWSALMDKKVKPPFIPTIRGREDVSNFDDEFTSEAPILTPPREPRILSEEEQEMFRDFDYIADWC
Outline: as §1

SAPK3(h) = molecular target: T11, SAPK3(h) (Homo sapiens, UniProt P53778)
T11 construct: gene MAPK12
Outline: as §1

Snk(h) = molecular target: T12, Snk(h) (Homo sapiens, UniProt Q9NYY3)
T12 construct: gene PLK2
Outline: as §1

TNIK(h) = TNIK(h) (Homo sapiens, UniProt Q9UKE5)
TNIK(h), sequence (Q9UKE5 whole entry): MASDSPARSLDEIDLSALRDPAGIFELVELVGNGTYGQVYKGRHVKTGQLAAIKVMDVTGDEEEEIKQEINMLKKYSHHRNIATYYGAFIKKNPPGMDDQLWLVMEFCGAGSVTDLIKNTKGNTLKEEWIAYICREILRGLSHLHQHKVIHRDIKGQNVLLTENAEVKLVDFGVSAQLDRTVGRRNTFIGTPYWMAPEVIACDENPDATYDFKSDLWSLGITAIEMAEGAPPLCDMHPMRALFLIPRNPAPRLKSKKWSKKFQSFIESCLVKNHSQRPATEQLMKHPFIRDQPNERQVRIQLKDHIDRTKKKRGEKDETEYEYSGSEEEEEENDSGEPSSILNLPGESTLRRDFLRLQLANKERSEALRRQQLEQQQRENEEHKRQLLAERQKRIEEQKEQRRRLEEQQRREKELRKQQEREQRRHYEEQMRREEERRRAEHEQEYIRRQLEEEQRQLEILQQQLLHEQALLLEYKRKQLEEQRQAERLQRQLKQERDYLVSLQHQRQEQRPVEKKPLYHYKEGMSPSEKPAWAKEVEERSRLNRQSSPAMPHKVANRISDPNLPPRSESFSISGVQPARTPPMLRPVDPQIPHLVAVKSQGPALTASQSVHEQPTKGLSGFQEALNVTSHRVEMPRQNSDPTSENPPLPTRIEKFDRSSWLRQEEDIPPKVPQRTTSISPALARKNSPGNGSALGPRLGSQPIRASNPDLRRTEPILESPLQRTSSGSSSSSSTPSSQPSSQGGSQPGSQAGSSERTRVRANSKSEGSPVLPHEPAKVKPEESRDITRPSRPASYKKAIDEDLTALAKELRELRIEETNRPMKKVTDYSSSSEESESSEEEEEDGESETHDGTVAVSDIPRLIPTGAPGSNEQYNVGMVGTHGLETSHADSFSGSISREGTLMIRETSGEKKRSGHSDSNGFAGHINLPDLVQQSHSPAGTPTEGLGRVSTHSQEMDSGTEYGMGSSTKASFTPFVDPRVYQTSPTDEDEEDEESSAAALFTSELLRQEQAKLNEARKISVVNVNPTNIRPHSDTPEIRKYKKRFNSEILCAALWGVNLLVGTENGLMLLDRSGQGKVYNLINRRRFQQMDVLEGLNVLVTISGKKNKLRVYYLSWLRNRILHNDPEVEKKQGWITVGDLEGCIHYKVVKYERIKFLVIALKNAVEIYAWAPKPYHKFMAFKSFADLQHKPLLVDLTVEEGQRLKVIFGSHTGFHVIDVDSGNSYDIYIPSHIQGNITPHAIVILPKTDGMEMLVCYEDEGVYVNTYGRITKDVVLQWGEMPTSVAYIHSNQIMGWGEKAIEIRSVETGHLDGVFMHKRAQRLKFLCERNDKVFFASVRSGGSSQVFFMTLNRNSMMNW
Outline: as §1

TSSK1(h) = molecular target: T13, TSSK1(h) (Homo sapiens, UniProt Q9BXA7)
T13 construct: gene TSSK1B
Outline: as §1

TTK(h) = TTK(h) (Homo sapiens, UniProt P33981)
Outline: as §1

Tec(h) activated = Tec(h) activated (Homo sapiens, UniProt P42680)
Tec(h) activated, sequence (P42680 whole entry): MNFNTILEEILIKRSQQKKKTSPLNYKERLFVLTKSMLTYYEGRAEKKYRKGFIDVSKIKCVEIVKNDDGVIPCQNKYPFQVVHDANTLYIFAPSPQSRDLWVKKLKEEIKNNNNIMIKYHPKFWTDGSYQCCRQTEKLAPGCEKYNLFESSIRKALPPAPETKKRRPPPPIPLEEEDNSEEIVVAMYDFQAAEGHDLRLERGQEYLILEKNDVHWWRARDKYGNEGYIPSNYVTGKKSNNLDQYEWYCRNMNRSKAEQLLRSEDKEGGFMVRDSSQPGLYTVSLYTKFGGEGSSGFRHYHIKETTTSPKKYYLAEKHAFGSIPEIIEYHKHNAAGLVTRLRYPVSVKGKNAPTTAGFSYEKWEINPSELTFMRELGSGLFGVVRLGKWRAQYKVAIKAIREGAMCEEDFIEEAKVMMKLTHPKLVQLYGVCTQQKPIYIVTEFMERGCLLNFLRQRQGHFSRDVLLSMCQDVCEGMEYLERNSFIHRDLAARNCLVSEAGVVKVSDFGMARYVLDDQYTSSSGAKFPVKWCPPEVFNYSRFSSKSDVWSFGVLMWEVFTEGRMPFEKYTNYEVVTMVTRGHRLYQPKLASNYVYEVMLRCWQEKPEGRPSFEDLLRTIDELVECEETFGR
Outline: as §1

TrkB(h) = molecular target: T14, TrkB(h) (Homo sapiens, UniProt Q16620)
T14 construct: gene NTRK2
T14 sequence (Q16620 whole entry): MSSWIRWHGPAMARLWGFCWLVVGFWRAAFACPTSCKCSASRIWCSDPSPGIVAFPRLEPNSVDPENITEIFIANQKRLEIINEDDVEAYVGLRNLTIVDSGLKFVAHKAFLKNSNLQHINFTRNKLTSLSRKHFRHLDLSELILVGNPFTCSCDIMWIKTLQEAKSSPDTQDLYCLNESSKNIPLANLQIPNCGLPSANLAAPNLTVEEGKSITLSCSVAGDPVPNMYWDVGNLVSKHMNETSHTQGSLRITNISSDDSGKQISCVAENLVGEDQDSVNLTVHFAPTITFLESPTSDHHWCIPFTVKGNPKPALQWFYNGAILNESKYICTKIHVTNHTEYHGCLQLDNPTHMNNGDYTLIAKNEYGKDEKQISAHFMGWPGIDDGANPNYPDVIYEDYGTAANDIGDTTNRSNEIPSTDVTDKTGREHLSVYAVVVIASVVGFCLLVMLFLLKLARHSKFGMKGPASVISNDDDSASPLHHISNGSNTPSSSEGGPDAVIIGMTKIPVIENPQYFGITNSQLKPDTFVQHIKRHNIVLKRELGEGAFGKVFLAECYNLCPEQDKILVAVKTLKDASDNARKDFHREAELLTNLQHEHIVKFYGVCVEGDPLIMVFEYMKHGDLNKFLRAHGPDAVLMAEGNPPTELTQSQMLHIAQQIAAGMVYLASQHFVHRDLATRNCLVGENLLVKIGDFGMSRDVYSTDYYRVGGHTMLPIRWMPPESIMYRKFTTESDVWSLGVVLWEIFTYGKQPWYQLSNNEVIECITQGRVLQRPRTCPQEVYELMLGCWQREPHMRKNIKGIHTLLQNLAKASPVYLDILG
Outline: as §1

TrkC(h) = molecular target: T15, TrkC(h) (Homo sapiens, UniProt Q16288)
T15 construct: gene NTRK3
Outline: as §1

SMILES: C1=C(c2nc(-c3cnn(C4CCNCC4)c3)cn3cc(-c4ccccc4)nc23)CCOC1 [YL-939]
- remaining activity at 10 µM (ARK5(h)): 93%
- remaining activity at 10 µM (BMPR2(h)): 99%
- remaining activity at 10 µM (CDK1/cyclinB(h)): 92%
- remaining activity at 10 µM (CDK12/cyclinK(h)): 99%
- remaining activity at 10 µM (IKKε(h)): 113%
- remaining activity at 10 µM (MINK(h)): 95%
- remaining activity at 10 µM (MKK6(h)): 106%
- remaining activity at 10 µM (MLCK(h)): 60%
- remaining activity at 10 µM (NEK2(h)): 99%
- remaining activity at 10 µM (PAK4(h)): 97%
- remaining activity at 10 µM (PDHK2(h)): 87%
- remaining activity at 10 µM (PDK1(h)): 127%
- remaining activity at 10 µM (PKA(h)): 98%
- remaining activity at 10 µM (PRK1(h)): 96%
- remaining activity at 10 µM (PRK2(h)): 89%
- remaining activity at 10 µM (SAPK3(h)): 75%
- remaining activity at 10 µM (Snk(h)): 112%
- remaining activity at 10 µM (TNIK(h)): 56%
- remaining activity at 10 µM (TSSK1(h)): 80%
- remaining activity at 10 µM (TTK(h)): 102%
- remaining activity at 10 µM (Tec(h) activated): 70%
- remaining activity at 10 µM (TrkB(h)): 81%
- remaining activity at 10 µM (TrkC(h)): 64%
